The results in this text go back to the Deep4Chem optical property database.

A short description of this series: solvent given as SMILES.

The compound `COc1ccc(N(c2ccccc2)c2ccc3ccc4c(N(c5ccccc5)c5ccc(OC)cc5)ccc5ccc2c3c54)cc1` showed an absorption maximum (in ClCCl) of 432 nm.
Consider `CC1(C)CCc2c(c3ccccc3c3nc4c(nc23)c2c(c3ccccc34)OC(C)(C)CC2)O1`, for which the absorption maximum runs as follows: (in C1CCCCC1) 431.03 nm; (in C1COCCO1) 434.97 nm; (in CC#N) 434.97 nm; (in CC(C)O) 431.97 nm; (in CCCCCC) 429.92 nm; (in ClC(Cl)Cl) 437.06 nm. This compound showed an absorption maximum (in c1ccccc1) of 434.97 nm.
Take `CC[n+]1c(-c2ccccc2)c2cc(NC(N)=[NH2+])ccc2c2ccc(NC(N)=[NH2+])cc21`: the absorption maximum (in O) turned out to be 397 nm.
In the case of `Cc1cc2nc3c(=O)[nH]c(=O)n(C)c3nc2cc1C`, for the setting “in CC#N”, the absorption maximum was determined as 379 nm.
Under “in C1COCCO1”, `COC(=O)c1ccc(/C=C2\C=C(c3ccc([N+](=O)[O-])cc3)N(CC(C)C)C2=O)cc1` gave an absorption maximum of 442 nm.
Turning to `c1ccc(N(c2ccccc2)c2ccc3c4cccc5c(N(c6ccccc6)c6ccccc6)ccc(c6cccc2c63)c54)cc1`, the absorption maximum is, setting by setting: (in C1CCCCC1) 493 nm; (in C1CCOC1) 489 nm; (in CC#N) 483 nm; (in Cc1ccccc1) 492 nm; (in ClCCl) 490 nm.
In the case of `COc1ccc2nc(N)sc2c1`, the absorption maximum is, setting by setting: (in CC#N) 305 nm; (in ClCCl) 305 nm.
`N#Cc1c(N2CCCCC2)cc(-c2ccc(-c3ccccc3)cc2)c2c1CCc1ccccc1-2` yielded an absorption maximum (in C1CCOC1) of 332 nm.
`c1ccc2c(c1)Cc1c-2sc2c1Cc1ccccc1-2` had an absorption maximum (in C1CCOC1) of 354 nm.
In the case of `O=c1c2ccccc2nc2n1[B-](F)(F)[n+]1ccccc1-2`, the absorption maximum reads like this: (in CC#N) 334 nm; (in ClCCl) 353 nm.
For `COC(=O)c1cc(=O)n(C)c2cc(-c3ccccc3N(C)C)sc12`, in that order: 402 nm and 406 nm.
For `CC(C)[Si](C#Cc1c2ccccc2c(C#Cc2c3ccccc3c(C#Cc3c4ccccc4c(C#Cc4c5ccccc5c(C#Cc5c6ccccc6c(C#Cc6c7ccccc7c(C#C[Si](C(C)C)(C(C)C)C(C)C)c7ccccc67)c6ccccc56)c5ccccc45)c4ccccc34)c3ccccc23)c2ccccc12)(C(C)C)C(C)C`, the absorption maximum (in Cc1ccccc1) is reported as 589 nm.
On to `O=C1OC(=O)[C@H]2[C@@H]1[C@@H]1C[C@H]2c2c1c(-c1ccccc1)c1ccccc1c2-c1ccccc1`, for which the absorption maximum (in ClC(Cl)Cl) is on record as 295 nm.
As for `C=CC(=O)Oc1ccc2cc(C=C)c(=O)oc2c1`, the absorption maximum (in CC#N) was 320 nm.
Consider `CC(C)(C)c1ccc2c(c1)c1ccc3cccc4c5cccc6oc(=O)c2c(c65)c1c34`, for which the absorption maximum (in C1CCOC1) was determined as 412 nm.
On to `COc1ccc2nc(/N=N/c3ccc(N(C)C)cc3)sc2c1`, for which the absorption maximum is, setting by setting: (in CC#N) 506 nm; (in ClCCl) 506 nm.
Consider `N#Cc1nc(-n2c3ccccc3c3ccccc32)cc(-n2c3ccccc3c3ccccc32)n1`, for which, for the setting “in Cc1ccccc1”, the absorption maximum was found to be 371 nm.
Where the note is “in ClCCl”, `CCCCn1c(-c2ccc(-c3nnc(-c4ccccc4)o3)cc2)nc(-c2ccccc2)c1-c1ccccc1` registered an absorption maximum of 339 nm.
Regarding `CC1(C)C(/C=C/C2=C(Cl)C(=C/C=C3/N(Cc4ccc([N+](=O)[O-])cc4)c4ccccc4C3(C)C)/CCC2)=[N+](Cc2ccc([N+](=O)[O-])cc2)c2ccccc21`, under “in CO”, the absorption maximum is 785 nm.
Regarding `COc1ccc(-c2cnc(-c3ccccc3)o2)cc1OC`, the absorption maximum (in ClCCl) worked out at 322 nm.
For `CCOC(=O)C(C(=O)OCC)C1=[N+]2C(=C(c3ccc(C)cc3)c3ccc(C(C(=O)OCC)C(=O)OCC)n3[B-]2(F)F)C=C1`, the absorption maximum turned out to be 515 nm (in C1CCCCC1); 512 nm (in C1CCOC1); 510 nm (in CCOC(C)=O); 509 nm (in CO); 514 nm (in Cc1ccccc1); 513 nm (in ClC(Cl)Cl).
For the compound `Cc1ccc2cc3cc(C)ncc3cc2c1`, the absorption maximum (in CCO) is on record as 383.73 nm.
As for `c1ccc(/C(=C(\c2ccccc2)c2cc(-c3ccc(-c4ccccc4)cc3)ccc2-c2ccc(-c3ccccc3)cc2)c2cc(-c3ccc(-c4ccccc4)cc3)ccc2-c2ccc(-c3ccccc3)cc2)cc1`, under “in C1CCOC1”, the absorption maximum is 302 nm.
With `c1csc(-c2ccc(-c3cccs3)s2)c1`, the absorption maximum is recorded as 351 nm (in CC#N) and 355 nm (in ClCCl).
Regarding `CN(C)c1ccc2c(-c3cc(N)ccc3C(=O)[O-])c3ccc(=[N+](C)C)cc-3oc2c1`, the absorption maximum worked out at 542 nm (in CCO) and 544 nm (in O).
With `Cn1c(=O)cc(C(=O)c2ccccc2)c2sc(-c3ccc(C(F)(F)F)cc3)cc21`, the absorption maximum runs as follows: (in CC#N) 388 nm; (in ClCCl) 398 nm.
Regarding `CC(=O)Nc1ccc2c3cccc4cccc(c5cccc1c52)c43`, the absorption maximum amounted to 447 nm (in C1COCCO1), 441 nm (in CC#N), 453 nm (in CCCCOCCCC) and 451 nm (in CCOC(C)=O).
Compound `Fc1ccc(C#Cc2nc(C#Cc3ccc(F)cc3)c(C#Cc3ccc(F)cc3)c(C#Cc3ccc(F)cc3)c2C#Cc2ccc(F)cc2)cc1` had an absorption maximum (in ClCCl) of 407 nm.
With `CC1=[N+]2C(=C(c3c4ccccc4c(-c4ccccc4)c4ccccc34)c3ccc(C)n3[B-]2(F)F)C=C1`, the absorption maximum is given as 514 nm (in CC#N); 516 nm (in CCCCCC); 516 nm (in CCO); 517 nm (in CN(C)C=O); 519 nm (in Cc1ccccc1); 518 nm (in ClCCl).
`c1ccc2c(c1)c1ccc3cccc4c3c1c2c1c2cccc3ccc5c6ccccc6c(c5c32)c41`: the absorption maximum (in ClCCl) is recorded as 625 nm.
Same read-out and setting: the figure for `ClP1(Cl)=N[P@@](Cl)(Oc2ccc3ccc4cccc5ccc2c3c45)=N[P@@](Cl)(Oc2ccc3ccc4cccc5ccc2c3c45)=N1` is 343 nm.
With `CCCCCCCCCCCCc1ccc(-c2cc(C)[o+]c(C)c2)cc1`, the absorption maximum turned out to be 350 nm (in CC#N) and 370 nm (in ClCCl).
The compound `FC(F)(F)c1ccc(C2=CC3=c4cc(-c5ccc(C(F)(F)F)cc5)c5nc(C(F)(F)C(F)(F)C(F)(F)F)nc6c(-c7ccc(C(F)(F)F)cc7)cc(c4c65)C4=CC(c5ccc(C(F)(F)F)cc5)=C5N=C(C(F)(F)C(F)(F)C(F)(F)F)N=C2C5C43)cc1` (stereo unspecified) came in with an absorption maximum (in C1CCOC1) of 489 nm.
For `COc1ccc2c3ccc(OC)cc3n(-c3ccc(-c4nnc(-c5c(C)cc(C)cc5C)o4)cc3C)c2c1`, the absorption maximum (in Cc1ccccc1) is 319 nm.
On to `Cc1ccc(/C=C/c2nc(-c3cccc([N+](=O)[O-])c3)[nH]c2/C=C/c2ccc(C)cc2)cc1`, for which the absorption maximum (in ClCCl) turned out to be 370 nm.
For `O=CN1N=C(c2ccc(Br)cc2)C[C@@H]1c1ccccc1`, the absorption maximum is given as 305 nm (in C1CCCCC1); 303 nm (in C1COCCO1); 298 nm (in CC#N); 297 nm (in CCO); 301 nm (in CCOC(C)=O); 298 nm (in CO). Also, the absorption maximum reads like this: (in CS(C)=O) 302 nm; (in Cc1ccccc1) 306 nm; (in ClC(Cl)(Cl)Cl) 306 nm.
`C(=C\c1c[nH]cn1)/c1cc[n+]2ccc(/C=C/c3c[nH]cn3)cc2c1` gave an absorption maximum (in CO) of 430 nm.
